Entries after “also recorded” stand apart in the source; their conditions may differ.
Legend:
[1] = tested on: primary mouse keratinocytes; assay: cytokine ELISAs from primary keratinocyte culture media; format: cell-based
Experimental: Adult (6-8 weeks) mouse keratinocytes were isolated from male or female animals using protocols described previously (57). In brief, tail skin was incubated in 1 mg/ml Dispase II (Roche) overnight at 4° C. The epidermis was physically removed from the dermis with tweezers following Dispase II treatment, subsequently digested with TrypLE (Thermo) for 20 min at room temperature, and keratinocytes were detached by vigorously shaking in EpiLife culture medium and filtered with a 70 μm strainer (Fisher scientific). Isolated cells were seeded at a density of 10^5 cells/cm^2 cultured with EpiLife (Gibco) in 12-well plates precoated with coating matrix (Gibco) and used between 3 and 5 days after isolation.
For cytokine ELISAs, primary keratinocytes were either mock-treated or treated with 8 μM TCT or 30 μM iE-DAP for 24 h Culture medium was harvested and centrifuged at 500 g for 15 mins and analyzed using ELISA kits detecting CXCL1 (KC), IL-6, TNF-α, IL-1α and IL-1β (R&D systems) following the manufacturer's protocols. In brief, 96-well ELISA plates were coated with capture antibody overnight at room temperature. The next day, the plate was washed three times with wash buffer and incubated with harvested media (100 μl) for 2 h followed by three washes and then probed with biotin-labelled detection antibody for 2 h. After three washes with wash buffer, plates were incubated with HRP-streptavidin for 20 min at room temperature (RT), developed with TMB (3,3′,5,5″-tetramethylbenzidine) substrate for 20 min at RT, and then stopped with IN sulfuric acid. Plate was analyzed at 450 nm with wavelength correction at 540 nm.

Slc46a2 = target: T1, Slc46a2 (Mus musculus, UniProt Q8CA03); assay: click-muropeptide uptake into keratinocytes (CalFluor 488 Azide, confocal imaging and lysate fluorescence); format: cell-based; settings: WT or Nod1−/− keratinocytes, 30 μM click-iE-DAP; MTX 250 μM or unlabeled iE-DAP 30 μM
T1 construct: primary mouse keratinocytes, which express Slc46a2 and Nod1; endogenous in cells; host or cells: primary mouse epidermal keratinocytes (WT or Nod1-/-; Slc46a2-/- cells served as the negative control)
T1 sequence (Q8CA03 1-479): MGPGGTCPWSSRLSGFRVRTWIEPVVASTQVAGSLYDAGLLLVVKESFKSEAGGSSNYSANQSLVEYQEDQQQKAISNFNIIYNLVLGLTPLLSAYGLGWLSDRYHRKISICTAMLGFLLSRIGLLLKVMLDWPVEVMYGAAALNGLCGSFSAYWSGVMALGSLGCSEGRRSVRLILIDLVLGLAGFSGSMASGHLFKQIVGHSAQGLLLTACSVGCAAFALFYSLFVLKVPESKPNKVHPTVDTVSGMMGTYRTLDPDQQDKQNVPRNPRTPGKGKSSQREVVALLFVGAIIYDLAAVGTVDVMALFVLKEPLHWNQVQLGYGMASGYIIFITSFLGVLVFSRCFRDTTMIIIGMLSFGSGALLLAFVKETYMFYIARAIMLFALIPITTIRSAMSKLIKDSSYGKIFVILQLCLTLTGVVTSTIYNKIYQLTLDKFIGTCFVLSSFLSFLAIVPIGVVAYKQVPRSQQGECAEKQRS
Experimental: For visualization, mouse keratinocytes were challenged with click-iE-DAP (30 μM) or click-MDP (20 μM) 37° C. for 30-60 min, cells washed 2× with 1×PBS to remove access of click-muropeptides and fixed with 4% paraformaldehyde in PBS at RT for 10 min. Cells were permeabilized with 1% Triton-X in PBS for 10 min at RT and blocked with 1% BSA in PBS. These permeabilized cells were then incubated in click-reaction conditions (250 μM CuSO4, 35 μM BTAA, 60 μM sodium ascorbate) with 2.5 μM CalFluor 488 Azide at RT for 30 mins. Cells were then washed and mounted on slides, with DAPI containing mounting media. Slides were imaged with a Leica SP8 confocal microscope.

[2] = tested on: mouse skin (NOD1/NOD2 response); assay: neutrophil recruitment to pinnae after intradermal injection; format: in vivo; settings: TCT 8 μM, iE-DAP 30 μM
Experimental: […] After 3 h, both ears were individually harvested, and stored in ice cold PBS on ice until further processing for flow cytometry staining.
Pinnae were cut into small pieces and incubated for 30 min at 37° C. in a solution of 1 mg/ml collagenase (Sigma) in DMEM media containing 10% FBS. Ice-cold FACS buffer (2% FBS in PBS) was added to skin samples to stop the reaction. Then samples were placed on 70 μm cell strainers and ground using a cell strainer pestle to create a single cell suspension. Cells were spun at 180 g for 5 min at 4° C. and resuspended in FACS buffer.
(§1) 1×10^6 cells were stained with F4/80-PE/Cy7 (1:200), CD45-alexaflour700 (1:200) and Gr1-PE (1:200) for 30 min on ice in the dark. Samples were washed three times with FACS buffer and analyzed with a Cytek Aurora cytometer. Results were analyzed with FlowJo software (Tree Star, USA).

[3] = tested on: mouse peritoneum (NOD1/NOD2 response); assay: neutrophil recruitment to the peritoneum after intraperitoneal injection; format: in vivo; settings: 3 h, iE-DAP 30 μM, MDP 10 μM
Experimental: For peritoneal cell extraction, animals were euthanized and cells from peritoneal cavity were isolated by peritoneal lavage (58). Harvested cell suspensions were centrifuged at 300 g for 5 min at 4° C. and resuspended in FACS buffer.
as §1

tape stripped mouse skin = assay: neutrophil recruitment after topical application to tape stripped skin; format: in vivo; settings: topical 10 μl of 30 μM iE-DAP on tape stripped skin, 3 h
Experimental: The epidermal barrier of the dorsal ear pinnae was disrupted by mild tape stripping. A small piece of surgical tape (Transpore surgical tape) was manually applied to the skin and removed, repeated 5 consecutive rounds using a fresh piece of tape for each round. Then, 10^7 CFU C. accolens or 30 μM iE-DAP in 50% glycerol was applied to one pinna and 50% glycerol was applied to contralateral pinna. After 3 h mice were euthanized, and pinnae were processed as described above.

[4] = tested on: primary human foreskin keratinocytes; assay: Propidium Iodide (PI) uptake assay in primary human foreskin keratinocytes; format: cell-based; settings: indicated iE-DAP doses, standard tissue culture
[5] = tested on: HSE dermal fibroblasts (CXCL8); assay: CXCL8 induction in Human Skin Equivalents (HSE) skin organoids; format: cell-based; settings: HSE epidermis treated with 30 μM iE-DAP for 24 h
[6] = tested on: primary dermal fibroblasts; assay: CXCL1 (KC) ELISA from primary dermal fibroblasts; format: cell-based, mouse; settings: iE-DAP 30 μM or IL-1α 10 ng/ml, 24 hrs
Experimental: Mouse dermal fibroblasts were isolated as described herein. In brief, mouse pinnae were incubated on a table shaker (200 rpm) in a collagenase D-pronase solution [2.5 mg/ml collagenase-D (Sigma), 20 mg/ml pronase (Sigma) diluted in 1M Tris, pH 8.0 and containing 1 μM EDTA (Sigma)] for 90 min at 37° C. Fibroblasts were then isolated by pressing digested skin through a 70 μm cell strainer, and cells were collected and cultured in RPMI 1640 medium with 10% FBS, 50 μM 2-mercaptoethanol, 100 μM asparagine, 2 mM glutamine, 1% penicillin-streptomycin for 2-4 passages before stimulating with immune elicitors, and/or harvesting media or cells.
For cytokine ELISAs from dermal fibroblast, cells were challenged with IL-1α (10 ng/ml) or 30 μM iE-DAP for 24 h, and media was collected and processed for ELISA as described above.

## NC(CCCC(NC(=O)CC[C@@H](N)C(=O)O)C(=O)O)C(=O)O (stereo in doubt) [iE-DAP, γ-D-Glu-mDAP]
[1]; 30 μM iE DAP, 24 h
  IL-1α release by keratinocytes: released IL-1α
[1]; 30 μM iE-DAP, 24 hrs
  induction of TNF, IL-6, IL-1β and IL-17 in keratinocytes: not induced
Slc46a2
  effect on cytosolic accumulation / cellular uptake of click-iE-DAP: interfered
[2]; intradermal 10 μl, LPS 10 μg/ml, 1 to 24 h
  neutrophil / leukocyte recruitment to the skin in WT mice: recruited inflammatory cells
[2]; intradermal, 3 h, Tri-DAP 25 μM, C12-iE-DAP 20 μM, MDP 10 μM
  neutrophil recruitment response in Slc46a2-deficient mice compared to WT: failed to respond; also recorded: significantly reduced
[3]
  neutrophil recruitment response in Slc46a2−/− mice: did not respond
  neutrophil recruitment response in Slc46a3−/− mice: responding normally
Tape stripped mouse skin
  neutrophil recruitment response of WT skin: responded
[4]
  membrane permeabilization of primary human keratinocytes (PI uptake): failed to induce; also recorded: did not induce cell permeabilization
[5]
  CXCL8 in HSE dermal fibroblasts: induction of CXCL8; also recorded: High expression of CXCL8
[6]
  CXCL1 (KC) response of primary dermal fibroblasts: did not respond; also recorded: unresponsive

Source: patent publication US20250161399A1, “TARGETING SLC46A2-MEDIATED MUROPEPTIDE TRANSPORT TO TREAT PSORIASIS” (University of Massachusetts, priority 2021, published 2025)
